Experiment: molar heat capacity at constant pressure
Settings: 101.33 kPa, Small (less than 1 g) adiabatic calorimetry

CC(C)COCC(C)C [diisobutyl ether]
Settings | molar heat capacity at constant pressure [J/K/mol]
140.67 K, Crystal 2 | 147.66
141.68 K, Crystal 2 | 148.47
142.69 K, Crystal 2 | 150.03
143.69 K, Crystal 2 | 151.09
144.7 K, Crystal 2 | 152.64
145.71 K, Crystal 2 | 153.6
146.72 K, Crystal 2 | 154.66
147.73 K, Crystal 2 | 156
148.74 K, Crystal 2 | 157.59
149.74 K, Crystal 2 | 159.31
150 K, Crystal 2 | 158.9
150.75 K, Crystal 2 | 160.48
151.76 K, Crystal 2 | 162.28
152.76 K, Crystal 2 | 163.63
153.77 K, Crystal 2 | 165.04
154.77 K, Crystal 2 | 166.47
155.77 K, Crystal 2 | 168.44
156.77 K, Crystal 2 | 170.7
157.77 K, Crystal 2 | 172.77
158.77 K, Crystal 2 | 174.55
159.76 K, Crystal 2 | 176.89
160 K, Crystal 2 | 171.1
160.22 K, Crystal 2 | 177.95
161.05 K, Crystal 2 | 179.83
161.87 K, Crystal 2 | 182.1
162.69 K, Crystal 2 | 184.81
163.5 K, Crystal 2 | 188
164.29 K, Crystal 2 | 190.62
165.08 K, Crystal 2 | 194.31
165.86 K, Crystal 2 | 198.38
166.64 K, Crystal 2 | 203.33
167.41 K, Crystal 2 | 209.11
168.16 K, Crystal 2 | 214.73
168.9 K, Crystal 2 | 223.05
169.63 K, Crystal 2 | 234.85
170.31 K, Crystal 2 | 282.57
170.71 K, Crystal 1 | 172.2
170.71 K, Crystal 2 | 184.2
171.96 K, Crystal 1 | 180.54
172.76 K, Crystal 1 | 180.42
173.54 K, Crystal 1 | 180.19
174.34 K, Crystal 1 | 181.2
175.14 K, Crystal 1 | 182.92
175.93 K, Crystal 1 | 183.75
176.72 K, Crystal 1 | 185.64
177.5 K, Crystal 1 | 187.45
178.28 K, Crystal 1 | 189.66
179.05 K, Crystal 1 | 192.53
179.81 K, Crystal 1 | 195.2
180 K, Crystal 1 | 193.8
190.4 K, Crystal 1 | 218
190.4 K, Liquid | 241.1
200 K, Liquid | 243.7
205.51 K, Liquid | 245.31
207.14 K, Liquid | 245.51
208.62 K, Liquid | 246.05
210 K, Liquid | 246.3
210.09 K, Liquid | 246.27
211.57 K, Liquid | 246.56
213.04 K, Liquid | 247.06
214.48 K, Liquid | 247.32
215.95 K, Liquid | 247.78
217.42 K, Liquid | 248.16
218.89 K, Liquid | 248.58
220 K, Liquid | 248.9
220.35 K, Liquid | 248.91
221.82 K, Liquid | 249.16
223.28 K, Liquid | 249.85
224.74 K, Liquid | 250.34
226.2 K, Liquid | 250.85
227.65 K, Liquid | 251.29
229.11 K, Liquid | 251.85
230 K, Liquid | 251.9
230.56 K, Liquid | 252.2
232.02 K, Liquid | 252.69
233.46 K, Liquid | 252.85
234.91 K, Liquid | 253.44
236.36 K, Liquid | 253.83
237.75 K, Liquid | 254.25
239.2 K, Liquid | 254.81
240 K, Liquid | 255
240.64 K, Liquid | 255.42
242.08 K, Liquid | 255.9
243.52 K, Liquid | 256
244.96 K, Liquid | 256.76
246.39 K, Liquid | 256.99
247.83 K, Liquid | 257.45
249.26 K, Liquid | 257.99
250 K, Liquid | 258.3
250.69 K, Liquid | 258.39
252.11 K, Liquid | 258.84
253.54 K, Liquid | 259.49
254.96 K, Liquid | 259.95
256.39 K, Liquid | 260.62
257.8 K, Liquid | 260.96
259.22 K, Liquid | 261.75
260 K, Liquid | 261.8
260.56 K, Liquid | 261.97
261.97 K, Liquid | 262.87
263.39 K, Liquid | 262.95
264.79 K, Liquid | 263.61
266.2 K, Liquid | 263.86
267.6 K, Liquid | 264.22
269 K, Liquid | 264.8
270 K, Liquid | 265.3
270.4 K, Liquid | 265.39
271.8 K, Liquid | 265.93
273.19 K, Liquid | 266.68
274.58 K, Liquid | 266.81
275.97 K, Liquid | 267.53
277.36 K, Liquid | 267.85
278.74 K, Liquid | 268.3
280 K, Liquid | 269
281.5 K, Liquid | 269.6
282.78 K, Liquid | 270.45
284.16 K, Liquid | 270.8
285.53 K, Liquid | 271.08
286.9 K, Liquid | 271.46
288.26 K, Liquid | 271.98
289.62 K, Liquid | 272.75
290 K, Liquid | 272.8
290.98 K, Liquid | 273.36
292.34 K, Liquid | 273.73
293.69 K, Liquid | 274.04
295.04 K, Liquid | 275.21
296.39 K, Liquid | 275.08
297.73 K, Liquid | 275.64
298.15 K, Liquid | 276.08
299.07 K, Liquid | 276.44
300 K, Liquid | 276.8
300.41 K, Liquid | 277.1
301.75 K, Liquid | 277.51
303.04 K, Liquid | 278.07
304.14 K, Liquid | 278.56
305.42 K, Liquid | 279.01
306.7 K, Liquid | 279.35
307.97 K, Liquid | 279.87
309.24 K, Liquid | 280.81
310 K, Liquid | 280.8
310.5 K, Liquid | 280.87
311.76 K, Liquid | 281.46
313.02 K, Liquid | 282.03
314.27 K, Liquid | 282.55
315.52 K, Liquid | 282.93
316.76 K, Liquid | 283.81
318 K, Liquid | 284.25
319.23 K, Liquid | 284.87
320 K, Liquid | 285
320.46 K, Liquid | 285.2
321.69 K, Liquid | 285.88
322.91 K, Liquid | 286.38
323.9 K, Liquid | 286.65
325.11 K, Liquid | 287.21
326.32 K, Liquid | 287.74
327.53 K, Liquid | 288.35
328.73 K, Liquid | 288.89
329.92 K, Liquid | 289.24
330 K, Liquid | 289.5
331.11 K, Liquid | 289.99
332.3 K, Liquid | 290.62
333.48 K, Liquid | 291.36
334.66 K, Liquid | 291.41
335.83 K, Liquid | 292.26
337 K, Liquid | 292.85
338.16 K, Liquid | 293.71
339.32 K, Liquid | 294.5
340 K, Liquid | 294.7
340.48 K, Liquid | 295.14
343.62 K, Liquid | 297.13
344.76 K, Liquid | 297.38
345.9 K, Liquid | 297.62
347.04 K, Liquid | 298.5
348.17 K, Liquid | 299
350 K, Liquid | 300
350.41 K, Liquid | 300.11
351.51 K, Liquid | 300.37
352.61 K, Liquid | 301.47
353.7 K, Liquid | 302.2
354.79 K, Liquid | 302.27
355.88 K, Liquid | 302.92
356.96 K, Liquid | 303.07
358.04 K, Liquid | 303.49
359.11 K, Liquid | 304.07
359.83 K, Liquid | 304.07
360 K, Liquid | 304.4
360.9 K, Liquid | 304.89
361.96 K, Liquid | 305.2
363.02 K, Liquid | 305.35
364.07 K, Liquid | 305.71
365.12 K, Liquid | 305.76
366.14 K, Liquid | 306.97
367.16 K, Liquid | 307.23
368.17 K, Liquid | 308
369.17 K, Liquid | 308.72
370 K, Liquid | 308.9
370.15 K, Liquid | 309.38
371.14 K, Liquid | 309.88
372.11 K, Liquid | 310.26

— the NIST ThermoML archive (doi:10.1021/je800998u)
